{
  "source": "patent US5137720A",
  "about": "“Antiviral combination, and method of treatment” (Ciba-Geigy Corporation, priority 1988, dated 1992)",
  "key": {"[1]": {"test": "Body distribution of liposomes following i.v. administration", "format": "in vivo", "conditions": "rodents", "method": "Alpha interferon is diluted in calcium and magnesium free PBS, and 2.5 ml is used to reconstitute 250 mg lyophilized synthetic lipids (POPC/OOPS, 7:3 molar ratio) containing 1 mg MTP-PE. This mixture is vigorously shaken in a Vortex mixer for 2 minutes and allowed to stand for 30 minutes prior to revortexing and the addition of another 2.5 ml of PBS. It is found (using I^125 labelled alpha interferon) that approximately 20% of the interferon is bound to liposomes following this reconstitution procedure. Liposomes prepared in this manner have the same physical properties as liposomes containing only MTP-PE and appear to follow the same body distribution profile following i.v. administration in rodents. Approximately 2-3 times more MTP-PE and interferon reach the lung when both substances are incorporated into liposomes as compared to unencapsulated forms."}, "HSV-2/MS": {"system": "HSV-2/MS", "test": "Herpes genitalis in the guinea pig, local lesion scores", "format": "in vivo, guinea pigs of the Pirbright strain", "method": "Female albino guinea-pigs of the Pirbright strain, weighing 200-300 g, are infected intravaginally after gentle opening of the introitus vaginae with a forceps. Thereafter, pieces of fibrin foam (SEVAC, Prague) measuring 5×5×4 mm are impregnated with 0.05 ml containing about 10^4 PFU of HSV 2/MS from cultures in HEL. These pieces are introduced intravaginally (1-2). The animals are kept in groups of 4-5 in type 4 Macrolon cages.\nThree days after infection, by which time the local symptomatology scores (see below) range from 3 to 6 in about 90% of the animals, these animals are divided at random into groups of 10-15 per preparation and untreated control. Treatment is started 72 hours after infection and administered twice daily for 5 days. One tenth of a milliliter is applied intravaginally and 0.1 ml extravaginally.\nFrom the 3rd day onwards, the local symptoms are evaluated thrice weekly. The criteria applied in assessing the therapeutic effects of treatment are the rate and the degree of regression of overt signs of infection in the individual animals. The degree and severity of local symptoms are scored according to the following points system:\nThe number indicated in the following Table of female albino guinea pigs of the Pirbright strain (150-180 g body weight) are infected intravaginally with ~10^4 PFU (plaque-forming units) of herpes simplex type 2 virus, cultivated in HEL (human embryonal lungs) cells, as described in B. Lukas et al., Arch. ges. Virusforsch. 44, 153-155 (1974).\nBeginning 72 h after infection, animals are treated intravaginally twice a day for 5 days with 0.2 ml of a gel containing one of the following: i) alpha interferon B1 D2 B3 B4 at 1.5×10^6 units/kg; ii) Liposome-encapsulated MTP-PE at 1 mg/kg and iii) a mixture of both. Guinea pigs receiving placebo treatment are given a gel without active ingredients."}, "rat alveolar macrophages": {"system": "rat alveolar macrophages", "test": "In vitro alveolar macrophage-mediated cytotoxicity against MADB-200 tumor cells (crystal violet)", "format": "cell-based", "conditions": "interferon 0", "method": "Macrophage-mediated cytotoxicity was assessed against syngeneic MADB-200 adenocarcinoma target cells available from the American Type Culture Collection, ATCC. These cells were maintained as monolayer cultures in MEM supplemented with 10% fetal calf serum. Cultures were maintained at 37° C. in a humidified atmosphere containing 5% CO2. Cultures were routinely tested for the presence of mycoplasma.\nAlveolar macrophages (AM) were collected by transtracheal lavage (Brownbill and Schumann, Cancer Immunol. Immunother. 20, 11-17, 1985). The cells recovered from lavage fluids were centrifuged at 400× g for 10 minutes, suspended in serum-free medium, and plated into 96-well Microtest II plastic tissue culture dishes at 5×10^4 cells per well. After incubation for 60 minutes, cells were washed with HBSS to remove non-adherent […].\nPurified cultures of rat alveolar macrophages were incubated at 37° C. for 1 hour with 0.2 ml of control medium, recombinant alpha B1 D2 B3 B4, MTP-PE, or a combination of alpha B1 D2 B3 B4 and MTP-PE. To these treated cells, 5×10^3 MADB-200 tumor cells were added and allowed to incubate for 72 hours at 37° C. Thus, 50,000 macrophages were incubated with 5000 tumor cells.\nA colorimetric assay using crystal violet staining of remaining MADB-200 tumor cells was used to determine macrophage cytotoxicity (Brownbill and Schumann, Cancer Immunol. Immunother. 20, 11-17, 1985). Briefly, following incubation, wells are washed with HBSS and the remaining cells fixed with formalin and stained with crystal violet. Each well is thoroughly washed after staining, the cells decolorized with alcohol, and the extract read with a colorimeter. The % cytotoxic activity of alveolar macrophages was calculated as follows: [formula]"}},
  "data": [
    {"compound": "CCCCCCCCCCCCCCCC(=O)OC[C@H](COP(=O)([O-])OCCNC(=O)[C@H](C)NC(=O)CC[C@@H](NC(=O)[C@H](C)NC(=O)[C@@H](C)O[C@H]1[C@H](O)[C@@H](CO)O[C@@H](O)[C@@H]1NC(C)=O)C(N)=O)OC(=O)CCCCCCCCCCCCCCC.[Na+]", "note": "[MTP-PE, N-acetyl-muramyl-L-alanyl-D-isoglutaminyl-L-alanine-2-(1,2-di-palmitoyl-sn-glycero-3-hydroxyphosphoryloxy)-ethylamide-sodium salt]", "values": [
      {"measurement": "amount reaching the lung, both substances incorporated into liposomes as compared to unencapsulated forms", "setting": "[1]", "result": "2-3 times"},
      {"measurement": "Mean Lesion Score ± Standard Error", "setting": "HSV-2/MS; day 3 after infection (start of treatment), gel intravaginally twice a day for 5 days, interferon 1.5×10^6 units/kg, liposome-encapsulated MTP-PE 1 mg/kg", "result": "1.9 ± 0.23"},
      {"measurement": "Mean Lesion Score ± Standard Error", "setting": "HSV-2/MS; day 5 after infection, same treatment", "result": "2.8 ± 1.15"},
      {"measurement": "Mean Lesion Score ± Standard Error", "setting": "HSV-2/MS; day 7 after infection, same treatment", "result": "4.3 ± 1.32"},
      {"measurement": "Mean Lesion Score ± Standard Error", "setting": "HSV-2/MS; day 10 after infection, same treatment", "result": "4.0 ± 1.93"},
      {"measurement": "Mean Lesion Score ± Standard Error", "setting": "HSV-2/MS; day 12 after infection, same treatment", "result": "4.3 ± 1.42"},
      {"measurement": "Mean Lesion Score ± Standard Error", "setting": "HSV-2/MS; day 14 after infection, same treatment", "result": "4.3 ± 1.42"},
      {"measurement": "Mean Lesion Score ± Standard Error", "setting": "HSV-2/MS; day 17 after infection, same treatment", "result": "3.0 ± 1.60"},
      {"measurement": "% Cytotoxicity", "setting": "rat alveolar macrophages; MTP-PE alone 0.01 μg/ml", "result": 0, "unit": "%"},
      {"measurement": "% Cytotoxicity", "setting": "rat alveolar macrophages; MTP-PE alone 0.03 μg/ml", "result": 7, "unit": "%"},
      {"measurement": "% Cytotoxicity", "setting": "rat alveolar macrophages; MTP-PE alone 0.1 μg/ml", "result": 10, "unit": "%"}
    ]}
  ]
}
